Experiment [1] deals with T1, EGFR (L858R/T790M/C797S) (Homo sapiens, UniProt P00533, C797S/L858R/T790M).
T1 construct: Reaction Biology Corp. (assay performed there)
Nature of the experiment: Kinase inhibitory activity, 33P-ATP filtration-binding (Reaction Biology Corp.). The experiment is classed as biochemical. The settings on record: read-out: Kinase half-maximal inhibition concentration IC50 EGFR(L858R/T790M/C797S). As for the experimental part:
Compound assay for kinase inhibitory activity against EGFR (L858R/T790M/C797S), EGFR (del19-E746-A750/T790M/C797S), and EGFR (WT) was done at Reaction Biology Corp. In reaction buffer (20 mM Hepes (pH 7.5), 10 mM magnesium chloride (MgCl2), 1 mM ethylenebis(oxyethylenenitrilo)tetraacetic acid (EGTA), 0.02% polyethylene glycol monododecyl ether (Brij35), 0.02 mg/ml BSA, 0.1 mM sodium vanadate (Na3VO4), 2 mM dithiothreitol (DTT), 1% DMSO), a certain concentration of substances, coenzyme factors, kinases and test compounds (10 doses, 3-fold serial dilutions, 2% DMSO final concentration) were added in sequence, and mixed well. The mixture was incubated at room temperature for 20 minutes. A certain concentration of ^33P-ATP was added to the reaction mixture to initiate reaction, followed by incubation at room temperature for 120 minutes. Finally, the radioactivity of the reactants was detected by filtration-binding method. The final kinase activity was expressed as the ratio of the remaining kinase activity of the test sample to the kinase activity of the DMSO control group. The dose-response relationship curve was fitted and IC50 was calculated using GraphPad software.

The target of experiment [2] is Ba/F3-FL-EGFR (L858R/T790M/C797S) (Homo sapiens, UniProt P00533, T790M/C797S/L858R, cells depend on it). Nature of the experiment: Cell proliferation inhibition, CellTiter-Glo. The format is cell-based. The note with it: 72 hours, read-out: Cell half-maximal inhibition concentration IC50 Ba/F3-FL-EGFR (L858R/T790M/C797S). On the procedure:
(§1) AdenosineTri-Phosphate (ATP) is an energy carrier shared by various life activities in nature, and is the smallest unit of energy storage and transfer. The CellTiter-Glo™ living cell assay kit uses luciferase as a detector, and luciferase requires the participation of ATP in the process of luminescence. CellTiter-Glo™ reagent is added to a cell culture medium, and the luminescence value is measured. The light signal is directly proportional to the amount of ATP in the system, and ATP is positively correlated with the number of living cells. Therefore, cell proliferation can be detected by detecting ATP content with the CellTiter-Glo kit. In this assay, the cell lines were Ba/F3-FL-EGFR (L858R/T790M/C797S), Ba/F3-FL-EGFR (WT), Ba/F3-FL-EGFR (L858R), Ba/F3-FL-EGFR (del19-S752-I759), Ba/F3-FL-EGFR (del19-E746-A750/T790M/C797S), Ba/F3-FL-EGFR (L858R/T790M), Ba/F3-FL-EGFR (del19-E746-A750/T790M), Ba/F3-TEL-EGFR (L858R/C797S), Ba/F3-FL-EGFR (del19-E746-A750/C797S) stably transfected cell lines.
(§2) The cell lines were cultured in an incubator at 37° C. and 5% CO2. The cells were periodically passaged, and cells in logarithmic growth phase were taken for plating.
(§3) a) DMSO was used to prepare a 10 mM solution of the compound to be tested, and then the compound to be tested was diluted to 0.3 or 1 mM with DMSO.
(§4) b) Preparation of 1000× compound storage plate (tube): DMSO was used to dilute by 3-fold gradient from the highest concentration to the lowest concentration, with a total of 9 concentrations.
(§5) c) Preparation of 20× compound working solution: 49 μL of cell culture medium was added to a flat-bottomed 96-well transparent drug plate, and 1 μL of compound was pipetted from the 1000× compound storage plate to the cell culture medium of the 96-well transparent drug plate. 1 μL of DMSO was added to the vehicle control. After adding compound or DMSO, the well content was mixed to uniform by aspiration and expelling with pipette.
(§6) a) Cells were stained with trypan blue and viable cells were counted. The cell viability rate was required to be above 90%.
(§7) b) 95 μL of cell suspension (2000 cells/well) was added to each well of the compound detection cell plate, and culture medium without cells (containing 0.1% DMSO) was added to the Min control well.
(§8) c) Dosing in the compound detection cell plate: 5 μL of 20× compound working solution was added to the cell culture plate. 5 μL of DMSO-cell culture mixture was added to the Max control. The final concentration of DMSO was 0.1%.
(§9) d) The culture plate was incubated in an incubator at 37° C., 5% CO2 for 72 hours.
(§10) Cell proliferation inhibition rate (Inhibition Rate) data were processed using the following formula:
Inhibition Rate (Inh %)=100−(RLUDrug−RLUMin)/(RLUMax−RLUMin)*100%.
The inhibition rates corresponding to different concentrations of compounds were calculated, and then GraphPad Prism software was used to draw the inhibition rate curve and the IC50 value was calculated.
A general note: ATP-based viability assays read luminescence as a measure of living cells.

The subject of experiment [3] is PC-9 (EGFR del19/T790M/C797S). The note with it: J. Med. Chem. 2019, 62, 22, 10272-10293; cited from earlier work.
Experiment [4] addresses Ba/F3-FL-EGFR (L858R) (Homo sapiens, UniProt P00533, L858R, cells depend on it). The experiment is described as follows: Cell proliferation inhibition, CellTiter-Glo. The settings on record: 72 hours, read-out: Cell half-maximal inhibition concentration IC50 Ba/F3-FL-EGFR (L858R). The experiment is classed as cell-based. As for the experimental part: as §1, §2, §3, §4, §5, §6, §7, §8, §9
(§11) The following steps were performed according to the instruction of Promega CellTiter-Glo luminescence cell viability detection kit (Promega-G7573). • a) The CellTiter-Glo buffer was thawed and allowed to stand to reach room temperature; • b) CellTiter-Glo substrate was allowed to stand to reach room temperature; • c) CellTiter-Glo buffer was added to CellTiter-Glo substrate in a bottle to dissolve the substrate to formulate CellTiter-Glo working solution; • d) The working solution was vortexed slowly for fully dissolution; • e) The cell culture plates were taken out and allowed to stand for 10 minutes to equilibrate to room temperature; • f) 50 μL (equal to half the volume of cell culture solution in each well) of Cell Titer-Glo working solution was added into each well. • g) The culture plates were shaken on an orbital shaker for 2 minutes to induce cell lysis; • h) The culture plates were left at room temperature for 10 minutes to stabilize the luminescence signal; • i) The luminous signal was detected on the PerkinElmer EnVision®2105 plate reader.
(§12) By PerkinElmer EnVision®2105 reading, the corresponding […] value RLU for each well was yielded.
as §10
(§13) Inhibition Rate (Inh %)=100−(RLUDrug−RLUMin)/(RLUMax−RLUMin)*100%. […]

Experiment [5] addresses Ba/F3-FL-EGFR (WT) (Homo sapiens, UniProt P00533). The experiment is described as follows: Cell proliferation inhibition, CellTiter-Glo. The experiment is classed as cell-based. The settings on record: 72 hours, read-out: Cell half-maximal inhibition concentration IC50 Ba/F3-FL-EGFR (WT). As for the experimental part:
as §1, §2, §3, §4, §5, §6, §7, §8, §9, §11, §12, §10, §13

Experiment [6] has as its target Ba/F3-FL-EGFR (del19-E746-A750/T790M/C797S) (Homo sapiens, UniProt P00533, DEL746-750/T790M/C797S, cells depend on it). The experiment is described as follows: Cell proliferation inhibition, CellTiter-Glo. The note with it: 72 hours, read-out: Cell half-maximal inhibition concentration IC50 Ba/F3-FL-EGFR (del19-E746-A750/T790M/C797S). The format is cell-based. As for the experimental part: as §1, §2, §3, §4, §5, §6, §7, §8, §9, §11, §12, §10, §13

The target of experiment [7] is Ba/F3-FL-EGFR (del19-S752-I759) (Homo sapiens, UniProt P00533, DEL752-759, cells depend on it). Nature of the experiment: Cell proliferation inhibition, CellTiter-Glo. The note with it: 72 hours, read-out: Cell half-maximal inhibition concentration IC50 Ba/F3-FL-EGFR (del19-S752-I759). The experiment is classed as cell-based. On the procedure:
as §1, §2, §3, §4, §5, §6, §7, §8, §9, §11, §12, §10, §13

Structures are written as SMILES. Where a name gives a salt, the structure may show the parent alone. Read-outs that look alike come from different tables or passages of the source.

Ba/F3-FL-EGFR (L858R/T790M/C797S), sequence (P00533 whole entry T790M/C797S/L858R): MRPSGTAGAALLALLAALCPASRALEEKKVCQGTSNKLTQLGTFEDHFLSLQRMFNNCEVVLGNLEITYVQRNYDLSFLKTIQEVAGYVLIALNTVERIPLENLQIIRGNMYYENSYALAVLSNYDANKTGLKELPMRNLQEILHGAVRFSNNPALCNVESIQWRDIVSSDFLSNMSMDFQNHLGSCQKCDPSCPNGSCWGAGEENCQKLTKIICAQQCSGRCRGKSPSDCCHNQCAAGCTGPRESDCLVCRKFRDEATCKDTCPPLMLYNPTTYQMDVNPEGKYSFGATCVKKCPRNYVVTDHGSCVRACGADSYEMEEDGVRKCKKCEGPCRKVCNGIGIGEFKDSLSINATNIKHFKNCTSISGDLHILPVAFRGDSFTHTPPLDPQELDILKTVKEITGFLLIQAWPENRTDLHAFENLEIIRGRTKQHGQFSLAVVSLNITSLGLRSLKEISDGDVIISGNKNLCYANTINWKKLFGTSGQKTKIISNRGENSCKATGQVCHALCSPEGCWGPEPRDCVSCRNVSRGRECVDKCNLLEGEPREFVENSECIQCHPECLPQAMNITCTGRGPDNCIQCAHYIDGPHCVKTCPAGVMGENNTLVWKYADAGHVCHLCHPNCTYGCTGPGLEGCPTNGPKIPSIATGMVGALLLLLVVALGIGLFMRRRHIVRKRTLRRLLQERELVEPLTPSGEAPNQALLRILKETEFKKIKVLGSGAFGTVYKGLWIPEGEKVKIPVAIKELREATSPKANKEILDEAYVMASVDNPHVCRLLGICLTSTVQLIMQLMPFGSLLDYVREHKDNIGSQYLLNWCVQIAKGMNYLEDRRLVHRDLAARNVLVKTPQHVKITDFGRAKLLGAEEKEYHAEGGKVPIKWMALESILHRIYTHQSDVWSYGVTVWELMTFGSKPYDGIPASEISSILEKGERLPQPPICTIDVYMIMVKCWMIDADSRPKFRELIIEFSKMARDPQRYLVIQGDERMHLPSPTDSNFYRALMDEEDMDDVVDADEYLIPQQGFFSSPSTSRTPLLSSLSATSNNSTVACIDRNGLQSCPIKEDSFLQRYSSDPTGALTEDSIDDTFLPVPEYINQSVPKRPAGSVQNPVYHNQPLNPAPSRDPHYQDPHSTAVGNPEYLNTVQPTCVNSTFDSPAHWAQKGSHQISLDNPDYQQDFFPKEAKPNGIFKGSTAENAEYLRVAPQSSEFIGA
T1 sequence (P00533 25-1210 T790M/C797S/L858R): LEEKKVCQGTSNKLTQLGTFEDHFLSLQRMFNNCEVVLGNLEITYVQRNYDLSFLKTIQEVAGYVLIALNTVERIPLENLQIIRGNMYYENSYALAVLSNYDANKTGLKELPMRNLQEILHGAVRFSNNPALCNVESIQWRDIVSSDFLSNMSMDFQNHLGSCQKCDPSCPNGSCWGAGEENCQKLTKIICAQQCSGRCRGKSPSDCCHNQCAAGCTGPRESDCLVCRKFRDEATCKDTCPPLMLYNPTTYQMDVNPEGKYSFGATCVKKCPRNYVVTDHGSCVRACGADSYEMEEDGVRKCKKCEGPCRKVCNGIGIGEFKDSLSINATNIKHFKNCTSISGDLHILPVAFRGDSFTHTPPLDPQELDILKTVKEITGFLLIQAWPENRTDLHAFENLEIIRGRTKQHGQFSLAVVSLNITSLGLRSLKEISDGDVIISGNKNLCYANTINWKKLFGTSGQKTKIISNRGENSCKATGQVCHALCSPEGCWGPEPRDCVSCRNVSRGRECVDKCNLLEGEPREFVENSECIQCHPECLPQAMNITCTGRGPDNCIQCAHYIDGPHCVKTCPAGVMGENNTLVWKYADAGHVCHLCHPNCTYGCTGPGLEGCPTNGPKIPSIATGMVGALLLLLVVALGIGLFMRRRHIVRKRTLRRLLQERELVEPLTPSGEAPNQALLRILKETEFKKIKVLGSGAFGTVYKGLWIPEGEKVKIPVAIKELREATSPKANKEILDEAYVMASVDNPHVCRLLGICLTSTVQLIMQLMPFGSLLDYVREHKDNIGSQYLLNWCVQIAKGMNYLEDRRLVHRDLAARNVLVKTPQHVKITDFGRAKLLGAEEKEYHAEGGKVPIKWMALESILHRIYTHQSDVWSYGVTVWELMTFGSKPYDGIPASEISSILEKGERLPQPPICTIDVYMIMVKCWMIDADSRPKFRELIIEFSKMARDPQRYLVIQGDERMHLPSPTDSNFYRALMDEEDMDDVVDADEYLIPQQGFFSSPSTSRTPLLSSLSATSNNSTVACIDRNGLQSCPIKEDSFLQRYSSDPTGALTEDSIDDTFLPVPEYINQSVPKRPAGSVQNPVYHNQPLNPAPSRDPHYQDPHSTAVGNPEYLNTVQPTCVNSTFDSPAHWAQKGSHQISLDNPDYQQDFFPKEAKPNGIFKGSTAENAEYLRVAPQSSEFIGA
Ba/F3-FL-EGFR (del19-S752-I759), sequence (P00533 with tags, fused parts or gaps DEL752-759): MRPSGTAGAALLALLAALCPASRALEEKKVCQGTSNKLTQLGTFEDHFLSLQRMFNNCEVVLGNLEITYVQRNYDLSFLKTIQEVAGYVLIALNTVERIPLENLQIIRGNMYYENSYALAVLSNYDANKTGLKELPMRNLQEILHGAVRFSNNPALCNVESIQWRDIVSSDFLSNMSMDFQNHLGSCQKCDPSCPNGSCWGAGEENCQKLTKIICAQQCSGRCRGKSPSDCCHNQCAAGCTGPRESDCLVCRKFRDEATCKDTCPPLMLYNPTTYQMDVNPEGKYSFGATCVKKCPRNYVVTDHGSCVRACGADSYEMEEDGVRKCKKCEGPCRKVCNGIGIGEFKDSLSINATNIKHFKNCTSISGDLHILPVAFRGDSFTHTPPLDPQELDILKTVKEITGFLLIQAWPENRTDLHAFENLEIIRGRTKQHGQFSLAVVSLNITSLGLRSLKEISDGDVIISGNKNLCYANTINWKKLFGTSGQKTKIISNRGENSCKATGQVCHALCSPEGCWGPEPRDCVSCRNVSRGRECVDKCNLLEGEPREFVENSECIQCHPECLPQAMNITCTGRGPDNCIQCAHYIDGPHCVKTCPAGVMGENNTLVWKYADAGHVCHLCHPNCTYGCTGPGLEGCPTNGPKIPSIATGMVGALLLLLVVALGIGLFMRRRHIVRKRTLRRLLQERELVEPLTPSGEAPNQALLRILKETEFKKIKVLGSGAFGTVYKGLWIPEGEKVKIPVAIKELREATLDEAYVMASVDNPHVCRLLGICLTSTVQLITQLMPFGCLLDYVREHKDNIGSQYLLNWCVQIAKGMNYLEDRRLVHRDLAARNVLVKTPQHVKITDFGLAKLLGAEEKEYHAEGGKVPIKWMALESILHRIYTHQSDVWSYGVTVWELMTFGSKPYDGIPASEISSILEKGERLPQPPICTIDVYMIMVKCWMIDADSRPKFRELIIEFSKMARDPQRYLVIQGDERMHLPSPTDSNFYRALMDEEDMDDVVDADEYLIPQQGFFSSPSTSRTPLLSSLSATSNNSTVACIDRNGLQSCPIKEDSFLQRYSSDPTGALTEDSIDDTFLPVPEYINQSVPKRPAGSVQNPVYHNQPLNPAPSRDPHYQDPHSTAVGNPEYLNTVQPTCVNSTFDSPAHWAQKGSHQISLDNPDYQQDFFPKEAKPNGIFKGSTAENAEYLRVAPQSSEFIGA
Ba/F3-FL-EGFR (WT), sequence (P00533 whole entry, change not shown): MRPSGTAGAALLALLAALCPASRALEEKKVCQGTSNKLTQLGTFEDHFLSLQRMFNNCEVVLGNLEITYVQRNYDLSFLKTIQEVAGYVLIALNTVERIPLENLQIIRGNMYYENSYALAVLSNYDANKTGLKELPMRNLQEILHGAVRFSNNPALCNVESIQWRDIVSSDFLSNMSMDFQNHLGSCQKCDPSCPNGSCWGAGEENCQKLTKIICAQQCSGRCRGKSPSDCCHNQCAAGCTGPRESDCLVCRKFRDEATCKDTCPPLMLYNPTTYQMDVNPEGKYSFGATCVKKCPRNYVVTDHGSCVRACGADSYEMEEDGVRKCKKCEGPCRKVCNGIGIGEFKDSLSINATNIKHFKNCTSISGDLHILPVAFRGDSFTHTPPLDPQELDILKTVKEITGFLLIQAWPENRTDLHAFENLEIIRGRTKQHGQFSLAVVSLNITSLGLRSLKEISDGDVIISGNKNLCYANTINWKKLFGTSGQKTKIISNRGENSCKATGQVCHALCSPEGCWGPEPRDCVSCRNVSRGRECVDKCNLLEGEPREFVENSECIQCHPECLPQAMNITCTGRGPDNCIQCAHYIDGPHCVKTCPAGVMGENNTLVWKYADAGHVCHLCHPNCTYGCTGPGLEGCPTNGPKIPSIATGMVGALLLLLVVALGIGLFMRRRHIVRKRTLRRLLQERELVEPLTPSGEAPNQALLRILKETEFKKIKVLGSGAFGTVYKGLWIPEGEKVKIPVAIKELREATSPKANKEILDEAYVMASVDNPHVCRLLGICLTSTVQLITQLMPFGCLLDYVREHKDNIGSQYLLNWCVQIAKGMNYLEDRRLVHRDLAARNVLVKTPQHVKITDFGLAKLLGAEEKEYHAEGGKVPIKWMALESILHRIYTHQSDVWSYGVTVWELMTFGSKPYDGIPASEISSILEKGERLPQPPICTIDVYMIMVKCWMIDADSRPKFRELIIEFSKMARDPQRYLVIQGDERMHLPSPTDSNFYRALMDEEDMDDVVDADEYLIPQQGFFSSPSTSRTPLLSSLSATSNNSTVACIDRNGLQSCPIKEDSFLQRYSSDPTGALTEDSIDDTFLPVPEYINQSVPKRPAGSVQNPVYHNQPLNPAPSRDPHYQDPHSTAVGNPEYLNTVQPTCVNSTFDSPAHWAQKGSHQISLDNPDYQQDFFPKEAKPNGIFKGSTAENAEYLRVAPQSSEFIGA

For `Cc1cc2cc(n1)-c1cnn(C)c1OCCC[C@@H](C)CN1/C(=N/C2=O)Nc2ccc(P(=O)(C(C)C)C(C)C)cc21` [WX-005 (trifluoroacetate)], the IC50 in experiment [1] (ATP 100 μM) stood at 1.63 nM. For the same compound, the GI50 in experiment [2] was 7.2 nM.
On to `Cc1cc2cc(n1)-c1cnn(C)c1OCCC[C@@H](C)CN1/C(=N/C2=O)Nc2ccc(N=S3(=O)CCN(C)CC3)cc21` [WX-015], for which the GI50 in experiment [2] amounted to 10.6 nM.
With `Cc1cc2cc(n1)-c1cnn(C)c1OCCC[C@@H](C)Cn1c(nc3ccc(CN4CCN(C)CC4)cc31)NC2=O` [BI-4020], in experiment [3], the Anti-tumor efficacy result is on record as “good anti-tumor efficacy”.
With `Cc1cc2cc(n1)-c1cnn(C)c1OCCC[C@@H](C)CN1/C(=N/C2=O)Nc2ccc(N=S3(=O)CC4CN(C)CC4C3)cc21` (some centres unmarked) [WX-024], in experiment [2], the GI50 was found to be 1.4 nM.
As for `Cc1cc2cc(n1)-c1cnn(C)c1OCCC[C@@H](C)CN1/C(=N/C2=O)Nc2ccc(N=S3(=O)CCC(N4CCN(C)CC4)CC3)cc21` (some centres unmarked) [WX-026], in experiment [2], the GI50 was found to be 11.6 nM.
Still for that read-out and setting: next, `Cc1cc2cc(n1)-c1cnn(C)c1OCCC[C@@H](C)CN1/C(=N/C2=O)Nc2ccc(N=S3(=O)CCCCC3)cc21` [WX-011]: 4.4 nM.
In the case of `Cc1cc2cc(n1)-c1cnn(C)c1OCCC[C@@H](C)CN1/C(=N/C2=O)Nc2ccc(N=S3(=O)CC4(COC4)C3)cc21` [WX-025], the GI50 in experiment [2] is 5.7 nM.
Still for that read-out and setting: next, `Cc1cc2cc(n1)-c1cnn(C)c1OCCC[C@@H](C)CN1/C(=N/C2=O)Nc2ccc(N=S3(=O)CCC4(CCOCC4)CC3)cc21` [WX-028]: 3.3 nM; `Cc1cc2cc(n1)-c1cnn(C)c1OCCC[C@@H](C)CN1/C(=N/C2=O)Nc2ccc(N=S3(=O)CCN(C4COC4)CC3)cc21` [WX-030]: 13 nM; `Cc1cc2cc(n1)-c1cnn(C)c1OCCC[C@@H](C)CN1/C(=N/C2=O)Nc2ccc(N=S3(=O)CCN(C4CCN(C)CC4)CC3)cc21` [WX-022]: 12.7 nM.
With `CCS(=O)(CC)=Nc1ccc2c(c1)N1C[C@H](C)CCCOc3c(cnn3C)-c3cc(cc(C)n3)C(=O)/N=C/1N2` [WX-012 (hydrochloride)], in experiment [2], the GI50 worked out at 7.3 nM.
Regarding `Cc1cc2cc(n1)-c1cnn(C)c1OCCC[C@@H](C)CN1/C(=N/C2=O)Nc2ccc(N=S3(=O)CCNCC3)cc21` [WX-014], the GI50 was determined as 14.3 nM in experiment [2]; 53.9 nM in experiment [4]; 421 nM in experiment [5]; 2.9 nM in experiment [6]; 38.1 nM in experiment [7].
As for `Cc1cc2cc(n1)-c1cnn(C)c1OCCC[C@@H](C)CN1/C(=N/C2=O)Nc2ccc(N=S(C)(C)=O)cc21` [WX-006 (trifluoroacetate)], the IC50 in experiment [1] (ATP 100 μM) came out at 0.831 nM. Also, the GI50 in experiment [2] came out at 2.3 nM.
On to `Cc1cc2cc(n1)-c1cnn(C)c1OCCC[C@@H](C)CN1/C(=N/C2=O)Nc2ccc(N=S3(=O)CCC4(CC3)CN(C)C4)cc21` [WX-031], for which the GI50 in experiment [2] was found to be 2.1 nM.
Still for that read-out and setting: the same measure for `Cc1cc2cc(n1)-c1cnn(C)c1OCCC[C@@H](C)CN1/C(=N/C2=O)Nc2ccc(N=S3(=O)CCC4(CC3)COC4)cc21` [WX-029]: 5.5 nM.
In the case of `Cc1cc2cc(n1)-c1cnn(C)c1OCCC[C@@H](C)CN1/C(=N/C2=O)Nc2ccc(P(C)(C)=O)cc21` [WX-001 (trifluoroacetate)], the IC50 was determined as 0.159 nM in experiment [1] (ATP 10 μM) and 1.17 nM in experiment [1] (ATP 100 μM).
As to `CCP(=O)(CC)c1ccc2c(c1)N1C[C@H](C)CCCOc3c(cnn3C)-c3cc(cc(C)n3)C(=O)/N=C/1N2` [WX-004 (trifluoroacetate)], the IC50 in experiment [1] (ATP 100 μM) was 1.75 nM.
With `CCS(=O)(=O)c1ccc2c(c1)N1C[C@H](C)CCCOc3c(cnn3C)-c3cc(cc(C)n3)C(=O)/N=C/1N2` [WX-002 (formate)], the IC50 in experiment [1] (ATP 10 μM) stood at 0.468 nM.
Regarding `Cc1cc2cc(n1)-c1cnn(C)c1OCCC[C@@H](C)CN1/C(=N/C2=O)Nc2ccc(N=S3(=O)CCC4(CCN(C)CC4)CC3)cc21` [WX-023], in experiment [2], the GI50 came out at 2.7 nM.

The record behind these values is patent publication US20250084097A1, “MACROCYCLIC AMIDE COMPOUNDS AND APPLICATION THEREOF” (Medshine Discovery Inc., priority 2021, published 2025).
